Experimental data published in patent US9139502B2, “Use of an urushiol compound in preparation of pharmaceutical compositions for inhibiting Smad3 phosphorylation” (Southern Hospital, Southern Medical University, priority 2013, dated 2015).

Tests used:
Smad3 phosphorylation = assay: Western blot of TGF-β1-induced Smad3 phosphorylation in vitro; assay type: cell-based, rat
Protocol: (§1) NRK52E and NRK49F cells were cultured in DMEM-Ham's medium supplemented with 10% fetal bovine serum. The cells reached at approximately 50% confluence were used for in vitro experiments. Cells were serum-starved for 12 h, and randomized into 6 groups: (1) Controls; (2) GQ-5 only; (3) TGF-β1 only; (4) TGF-β1+GQ-5 0.1 μM; (5) TGF-β1+GQ-5 0.5 μM; (6) TGF-β1+GQ-5 2.5 μM.
(§2) (2) GQ-5 only: pre-treated with GQ-5 (2.5 μM) for 1 h, followed with DMEM for 1 h
(§3) (3) TGF-β1 only: pre-treated with DMSO (0.1%) for 1 h, followed with TGF-β1 (10 ng/ml) for 1 h
(4) TGF-β1+GQ-5 0.1 μM: pre-treated with GQ-5 (0.1 μM) for 1 h, followed with TGF-β1 (10 ng/ml) for 1 h
(5) TGF-β1+GQ-5 0.5 μM: pre-treated with GQ-5 (0.5 μM) for 1 h, followed with TGF-β1 (10 ng/ml) for 1 h
(6) TGF-β1+GQ-5 2.5 μM: pre-treated with GQ-5 (2.5 μM) for 1 h, followed with TGF-β1 (10 ng/ml) for 1 h.
GQ-5 was dissolved in DMSO. Cells were treated as described. Cell lysates were immunoblotted with antibodies against phospho-Smad3, Smad3, phospho-Smad2, Smad2.
NRK52E cells were cultured in DMEM-Ham's medium supplemented with 10% fetal bovine serum. The cells reached at approximately 50% confluence were used for in vitro experiments. Cells were serum-starved for 12 h, and randomized into 8 groups: (1) Controls; (2) GQ-5 only; (3) TGF-β1 0.5 h; (4) TGF-β1 0.5 h+GQ-5; (5) TGF-β1 1.0 h; (6) TGF-β1 1.0 h+GQ-5; (7) TGF-β1 3.0 h; (8) TGF-β1 3.0 h+GQ-5;
(4) TGF-β1 0.5 h+GQ-5: pre-treated with GQ-5 (2.5 μM) for 1 h, followed with TGF-β1 (10 ng/ml) for 0.5 h
(6) TGF-β1 1.0 h+GQ-5: pre-treated with GQ-5 (2.5 μM) for 1 h, followed with TGF-β1 (10 ng/ml) for 1.0 h
(8) TGF-β1 3.0 h+GQ-5: pre-treated with GQ-5 (2.5 μM) for 1 h, followed with TGF-β1 (10 ng/ml) for 3.0 h
GQ-5 was dissolved in DMSO. Cells were treated as described. Cell lysates were immunoblotted with antibodies against phospho-Smad3, Smad3, phospho-Smad2, and Smad2.

PI3K = assay: Western blot of PI3K phosphorylation in UUO kidneys; assay type: in vivo, rat; settings: UUO rats, GQ-5 40 mg/kg daily i.p. right after UUO, sacrificed day 14
Protocol: Male Sprague-Dawley rats with body weight 200 to 250 g were randomized into 3 groups (n=6 in each group): (1) sham operated rats; (2) UUO rats; (3) UUO+GQ-5 rats.
GQ-5 was dissolved in 5% propylene glycol.
(3) UUO+GQ-5 rats: daily intraperitoneal injection of GQ-5 (40 mg/kg body weight) right after UUO;
UUO was performed using an established protocol as described. GQ-5 was dissolved in 5% propylene glycol. Rats were administrated with GQ-5 as described before. All the rats were sacrificed 14 days after UUO. Western blot analyses were performed to examine the Smad4, Smad7 expression and p38, PI3K, ERK phosphorylation.

Smad7 = assay: Western blot of Smad7 expression in vitro; assay type: cell-based, rat; settings: NRK52E and NRK49F cells, GQ-5 2.5 nM pre-treated 1 h, TGF-β1 10 ng/ml 1 h
Protocol: NRK52E and NRK49F cells were cultured in DMEM-Ham's medium (Gibco, Life Techologies, NY, USA) supplemented with 10% fetal bovine serum (Gibco, Life Techologies, NY, USA). The cells reached at approximately 50% confluence were used for in vitro experiments. Cells were serum-starved for 12 h, and randomized into 4 groups: (1) Controls; (2) GQ-5 only; (3) TGF-β1 only; (4) TGF-β1+GQ-5
as §2, §3
(4) TGF-β1+GQ-5: pre-treated with GQ-5 (2.5 nM) for 1 h, followed with TGF-β1 (10 ng/ml) for 1 h
GQ-5 was dissolved in DMSO. Cells were treated as described. cell lysates were immunoblotted with antibodies against Smad4, Smad7, phospho-p38, p38, phospho-PI3K, PI3K, phosphor-ERK, and ERK.

NRK52E cells = assay: MTT cell viability test; assay type: cell-based, rat; settings: GQ-5 0.25-4 μM, 1 h
Protocol: To test the toxicity of GQ-5, rat proximal tubular cells (NRK52E) were seeded into 96-well plates in a volume of 200 μl per well (1×10^5 cell/ml) and incubated for 24 hours to allow cells to attach. The cells were then incubated with indicated amount of GQ-5 for 1 h. Cell viability was determined by addition of 20 μl of 3-(4,5-dimethylthiazol-2-yl)-2, 5-diphenyltetrazolium bromide (MTT) at a concentration of 5 mg/ml. After incubation for 4 hours, the medium was removed and 150 μl of DMSO was added to dissolve the formazan crystals. The absorbance was read at 540 nm by using iMark™Microplate Reader (Bio-Rad).

collagen I = assay: Real-time PCR of TGF-β1-induced collagen I mRNA in vitro; assay type: cell-based, rat; settings: NRK 52E and NRK 49F cells, GQ-5 0.1-2.5 μM pre-treated 1 h, TGF-β1 10 ng/ml 36 h
Protocol: as §1, with “μM” for “μM.”
(2) GQ-5 only: pre-treated with GQ-5 (2.5 μM) for 1 h, followed with DMEM for 36 h
(3) TGF-β1 only: pre-treated with DMSO for 1 h, followed with TGF-β1 (10 ng/ml) for 36 h
(4) TGF-β1+GQ-5 0.1 μM: pre-treated with GQ-5 (0.1 μM) for 1 h, followed with TGF-β1 (10 ng/ml) for 36 h
(5) TGF-β1+GQ-5 0.5 μM: pre-treated with GQ-5 (0.5 μM) for 1 h, followed with TGF-β1 (10 ng/ml) for 36 h
(6) TGF-β1+GQ-5 2.5 μM: pre-treated with GQ-5 (2.5 μM) for 1 h, followed with TGF-β1 (10 ng/ml) for 36 h
GQ-5 was dissolved in DMSO. Cells were treated as described. Cells were collected for mRNA extraction. Real-rime PCR was performed to examine the mRNA expression of α-SMA, collagen I and fibronectin.

CCCCCC/C=C\CCCCCCCc1cccc(O)c1O [GQ-5, 3-[(Z)-pentadec-8-enyl]catechol]
inhibitory effect in the absence of TGF-β1 stimulation (Smad3 phosphorylation; NRK52E and NRK49F cells, GQ-5 2.5 μM only): almost undetectable
TGF-β1-induced Smad3 phosphorylation, dose dependence (Smad3 phosphorylation; NRK52E and NRK49F cells, GQ-5 0.1, 0.5, 2.5 μM pre-treated 1 h, TGF-β1 10 ng/ml 1 h): attenuated TGF-β1-induced Smad3 phosphorylation in a dose-dependent manner
TGF-β1-induced Smad3 phosphorylation, time dependence (Smad3 phosphorylation; NRK52E cells, GQ-5 2.5 μM pre-treated 1 h, TGF-β1 10 ng/ml 0.5, 1.0, 3.0 h): attenuated TGF-β1-induced Smad3 phosphorylation in a time-dependent manner
phosphorylation of PI3K (PI3K): did not affect
protein expression of Smad7 (Smad7): did not affect
viability and proliferation of the cells (MTT) (NRK52E cells): did not affect
TGF-β1-induced mRNA expression of collagen I (collagen I): significantly inhibited
